From patent US20210177814A1, “USE OF GUANABENZ OR DERIVATES THEREOF FOR THE TREATMENT OF TYPE I IFN-DEPENDENT PATHOLOGIES” (INSERM (Institut National de la Santé et de la Recherche …, priority 2018, published 2021)

Target: T1, hTLR7 (Homo sapiens, UniProt Q9NYK1)
T1 construct: expressed in transfected cells; host or cells: HEK-Blue (HEK 293) hTLR7 reporter cells
T1 sequence (Q9NYK1 27-1049): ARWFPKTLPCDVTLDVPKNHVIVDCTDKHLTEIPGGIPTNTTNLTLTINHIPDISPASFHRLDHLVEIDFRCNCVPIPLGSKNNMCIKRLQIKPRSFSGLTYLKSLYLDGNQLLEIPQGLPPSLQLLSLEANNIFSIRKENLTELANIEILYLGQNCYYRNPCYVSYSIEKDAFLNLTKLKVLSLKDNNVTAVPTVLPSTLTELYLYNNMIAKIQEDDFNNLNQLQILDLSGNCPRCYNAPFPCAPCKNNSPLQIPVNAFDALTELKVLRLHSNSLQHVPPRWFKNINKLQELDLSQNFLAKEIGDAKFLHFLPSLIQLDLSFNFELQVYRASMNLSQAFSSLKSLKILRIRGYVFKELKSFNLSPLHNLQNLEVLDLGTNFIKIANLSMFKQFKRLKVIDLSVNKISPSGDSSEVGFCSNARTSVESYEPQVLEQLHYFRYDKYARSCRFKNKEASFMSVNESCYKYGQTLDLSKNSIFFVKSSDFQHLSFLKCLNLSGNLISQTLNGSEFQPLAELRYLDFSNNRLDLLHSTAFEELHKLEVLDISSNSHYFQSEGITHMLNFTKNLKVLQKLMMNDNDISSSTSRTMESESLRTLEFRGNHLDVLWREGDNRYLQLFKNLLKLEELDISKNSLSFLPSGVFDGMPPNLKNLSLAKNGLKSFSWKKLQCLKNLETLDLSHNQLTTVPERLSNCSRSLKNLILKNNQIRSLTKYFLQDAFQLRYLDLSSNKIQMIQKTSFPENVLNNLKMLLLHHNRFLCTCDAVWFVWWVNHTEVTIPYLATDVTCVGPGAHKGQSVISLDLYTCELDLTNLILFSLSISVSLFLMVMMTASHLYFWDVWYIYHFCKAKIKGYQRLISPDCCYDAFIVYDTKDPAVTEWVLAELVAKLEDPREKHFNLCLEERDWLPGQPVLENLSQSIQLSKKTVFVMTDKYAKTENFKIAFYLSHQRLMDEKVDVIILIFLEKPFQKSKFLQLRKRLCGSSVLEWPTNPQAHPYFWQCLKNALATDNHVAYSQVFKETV
Experiment: HEK-Blue hTLR7 SEAP reporter assay
Assay type: cell-based
Conditions: 5 μg/mL imiquimod, GBZ 50 μM
Experimental: FIG. 1: Guanabenz inhibits TLR3 and TLR9 activation in mouse Flt3-L DCs and human blood pDCs. A) Sorted bone marrow derived Flt3L-DCs were activated for 6 h with 10 μg/mL poly I:C LMW (TLR3 in DC1) or 1 μM ODN 1585 (TLR9 in pDCs). GBZ was added at 50 μM and inhibited IFN-β and Interleukin-6 (IL-6) production in activated cells. B) hTLR4, hTLR3, hTLR9 and hTLR7 expressed in the reporter HEK-Blue™ cells are inhibited by GBZ. TLR-expressing HEK-Blue™ cells were respectively activated with 100 ng/mL LPS, 10 μg/mL poly I:C LMW, 2.5 μM ODN 2006 or 5 μg/mL imiquimod, respectively. GBZ was added at 50 μM. TLR activity was measured indirectly through SEAP activity as absorbance at 405 nm. […] Protein concentration of IFN-α and TNF-α secreted were measured at the indicated time points or at 16 h. […]
Given the efficiency of GBZ on mouse TLR3 and TLR9, we turned to human TLRs, in order to extend the relevance of our observations. GBZ-mediated inhibition was first evaluated on NF-kB signaling by monitoring secreted alkaline phosphatase (SEAP) reporter levels in HEK-293 cells expressing TLR3, TLR4, TLR7, TLR9 (FIG. 1B). […] The functionality of the TLR9 transduction pathway was next evaluated by using phospho-flow detection of 40S ribosomal protein S6 (rpS6) phosphorylation, a well characterized early signaling event down-stream of TLR activation by LPS or viruses.

With `NC(N)=N/N=C/c1c(Cl)cccc1Cl` [GBZ, 2-(2,6-dichlorobenzylidene)-hydrazinecarboximidamide] the “TLR7-dependent activation of the SEAP reporter” value was “inhibited”.
